Data reported in patent publication US8476043B2, “Inhibitors for the soluble epoxide hydrolase” (The Regents of the University of California, priority 2004, dated 2013).
Converted amounts (≈) assume the structure as drawn.

Assays:
Solubility in oil = type: physicochemical; settings: Table 5
human sEH [1] = target: T1, human sEH (Homo sapiens, UniProt P34913); assay: sEH inhibition, fluorescent assay with cyano(6-methoxy-naphthalen-2-yl)methyl trans-[(3-phenyloxiran-2-yl)methyl]carbonate as substrate; type: biochemical; settings: for IC50: Table 5, fluorescent-based assay, 0.96 nM human sEH, pH 7.0, [S] = 5 μM, read-out: Human sEH IC50; for fold improvement in inhibition of the human enzyme: compared with 687 (compound 4)
T1 construct: made in house
T1 sequence (P34913 1-555): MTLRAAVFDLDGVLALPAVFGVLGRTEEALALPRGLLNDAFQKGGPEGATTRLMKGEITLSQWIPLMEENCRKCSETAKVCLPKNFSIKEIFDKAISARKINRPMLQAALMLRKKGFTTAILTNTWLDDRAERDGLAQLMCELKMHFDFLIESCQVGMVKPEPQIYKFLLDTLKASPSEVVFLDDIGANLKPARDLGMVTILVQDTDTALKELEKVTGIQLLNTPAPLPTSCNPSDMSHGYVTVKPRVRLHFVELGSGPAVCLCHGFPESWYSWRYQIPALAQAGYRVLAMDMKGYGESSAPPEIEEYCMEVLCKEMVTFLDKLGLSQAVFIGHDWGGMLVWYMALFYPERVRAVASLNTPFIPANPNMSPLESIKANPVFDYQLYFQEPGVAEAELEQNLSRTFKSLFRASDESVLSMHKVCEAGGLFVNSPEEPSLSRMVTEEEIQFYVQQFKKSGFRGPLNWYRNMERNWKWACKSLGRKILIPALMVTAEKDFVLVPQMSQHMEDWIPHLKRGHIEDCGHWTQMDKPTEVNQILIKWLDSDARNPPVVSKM
Procedure, shortened: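 Affinity-purified recombinant human sEH from baculovirus expression; activity followed as formation of fluorescent 6-methoxy-2-naphthaldehyde from the carbonate substrate. IC50 by regression of at least five points, two on each side of the IC50 in the linear region, from at least three separate runs, each in triplicate.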

mouse sEH = target: T2, mouse sEH (Mus musculus, UniProt P34914); assay: sEH inhibition, spectrometric assay with racemic 4-nitrophenyl-trans-2,3-epoxy-3-phenylpropyl carbonate as substrate; type: biochemical; settings: Table 5; spectrometric-based assay; read-out: Mouse sEH IC50
T2 construct: made in house
T2 sequence (P34914 1-554): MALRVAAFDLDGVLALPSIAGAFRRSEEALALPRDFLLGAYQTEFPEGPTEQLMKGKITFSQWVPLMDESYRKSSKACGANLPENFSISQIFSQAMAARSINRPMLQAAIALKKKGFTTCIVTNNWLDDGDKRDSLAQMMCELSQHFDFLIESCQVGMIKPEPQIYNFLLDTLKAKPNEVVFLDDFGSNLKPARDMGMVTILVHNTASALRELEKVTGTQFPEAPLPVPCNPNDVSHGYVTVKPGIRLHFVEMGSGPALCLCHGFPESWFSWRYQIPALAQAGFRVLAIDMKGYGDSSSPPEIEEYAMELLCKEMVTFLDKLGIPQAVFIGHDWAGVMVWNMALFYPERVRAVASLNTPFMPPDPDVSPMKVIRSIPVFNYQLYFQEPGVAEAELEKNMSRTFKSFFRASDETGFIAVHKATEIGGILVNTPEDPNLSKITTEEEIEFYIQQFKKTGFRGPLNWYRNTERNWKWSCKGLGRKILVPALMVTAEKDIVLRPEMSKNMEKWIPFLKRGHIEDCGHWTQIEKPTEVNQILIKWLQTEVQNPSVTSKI
Procedure: (§1) Recombinant mouse sEH and human sEH were produced in a baculovirus expression system and purified by affinity chromatography. […] Protein concentration was quantified by using the Pierce BCA assay using Fraction V bovine serum albumin as the calibrating standard.
(§2) IC50 values were determined in one of two method. One method uses racemic 4-nitrophenyl-trans-2,3-epoxy-3-phenylpropyl carbonate as substrate. […] Assays were performed in triplicate. […] The curve was generated from at least three separate runs, each in triplicate, to obtain the standard deviation (SD) given in Table 1 thru Table 4.

human sEH [2] = target: T1, human sEH; assay: as above; type: biochemical; settings: Table 5; spectrometric-based assay; read-out: Human sEH IC50
Procedure: as §1, §2

Solubility in water = type: physicochemical
[3] = In vitro metabolism in liver microsomes and S9 fractions; type: in vitro ADME; settings: rat and human microsomes, with NADPH
From the text: Both rat and human microsomes were used for the 950 metabolism study.

[4] = Microsomal, NADPH dependent metabolic stability in rat hepatic microsomes; type: in vitro ADME; settings: 1 μM, NADPH generating system, P450 dependent
Procedure: FIG. 6 is a graph illustrating the metabolic stabilities of 1-adamantyl-3-dodecyl urea (686) and 1-cyclohexyl-3-dodecyl urea (297) in rat hepatic microsomes. Microsomes were incubated with 1 μM 686 or 297 in the presence of an NADPH generating system. Data are expressed as mean±SD of triplicate experiments.
To evaluate the metabolic stability of these inhibitors, the microsomal and NADPH dependent metabolism of a number of potent sEH inhibitors was evaluated. […] The first step in the metabolic transformation of the n-alkyl to n-alkanoic acid derivatives is an NAPDH dependent process carried out by cytochrome P450 dependent omega hydroxylation in rodent and human hepatic tissue preparations (see FIG. 8). When in vivo metabolism was evaluated, evidence for the beta-oxidation of the alkanoic acid derivatives was also found (see FIG. 9).

[5] = Pharmacokinetics after oral gavage in mice; type: in vivo, male Swiss Webster mice
Procedure: Animals. Male Swiss Webster mice, 6 weeks-old, were obtained from Charles River (CA, USA). After 1-2 week acclimation period, healthy animals were assigned to study groups based on body-weight stratified randomization procedure. The body weight of animals used in all the experiments ranged from 28 g to 38 g.
Administration and measurement. Pharmacokinetic studies in mice used a 5 mg/kg dose of sEH inhibitors dissolved in corn oil and 4% DMSO administered orally. […] Then the samples were centrifuged at 6000 rpm for 5 min, and the ethyl acetate layer was dried under nitrogen. The residue was reconstituted in 25 μL of methanol, and aliquots (5 μL) were injected onto the LC-MS/MS system.
Analysis. Pharmacokinetics analysis was performed using SigmaPlot software system (SPSS science, Chicago, Ill.).

Row | Structure (SMILES) | Solubility in oil (Solubility in oil) | IC50 (human sEH [1]) [nM] | fold improvement in inhibition of the human enzyme (human sEH [1]) | metabolic stability in microsomal preparations [4] | time to reach the maximum concentration [5] [h] | further results
1 | CS(=O)(=O)NC(=O)CCCCCCCCCCCNC(=O)NC12CC3CC(CC(C3)C1)C2 [Compound 848, N-[12-(3-Adamantan-1-yl-ureido)dodecanoyl]methanesulfonamide] | 4,000 μg/mL | 2.1 | about 1.5 fold |  |  | IC50 (mouse sEH): 50 ± 10 nM; IC50 (human sEH [2]): 100 ± 10 nM; fold lower water solubility than compound 4 (687) (Solubility in water): 3 fold; solubility (Solubility in water; water, Table 5): 10 µg/mL (≈ 21.3 µM)
2 | O=C(CCCCCCCCCCCNC(=O)NC12CC3CC(CC(C3)C1)C2)NS(=O)(=O)c1ccccc1 [Compound 914] | 5,000 μg/mL | 1.9 | about 1.5 fold |  |  | 
3 | CCOCCOCCOCCCCCNC(=O)NC12CC3CC(CC(C3)C1)C2 [Compound 950] |  |  |  |  |  | major metabolite in vitro [3]: hydroxy metabolite was the major metabolite
4 | CCCCCCCCCCCCNC(=O)NC12CC3CC(CC(C3)C1)C2 [Compound 686, 1-adamantyl-3-dodecylurea, reference compound] |  |  |  | rapidly metabolized | 2 | solubility of adamantyl compound relative to the corresponding cyclohexyl derivative (Solubility in water; 789 vs. 772, 790 vs. 791, 686 vs. 297): approximately 2 ×
5 | O=C(O)CCCCCCCCCCCNC(=O)NC12CC3CC(CC(C3)C1)C2 [Compound 687, 1-(1-adamantyl)-3-(12-dodecanoic acid)urea] |  |  |  | stable | 0.5 | 
